# Assay results taken from ChEMBL document CHEMBL1240532, “Spiroindolones, a potent compound class for the treatment of malaria” (Science, 2010).
# Activity calls are given as the source filed them. The rule behind the calls is not given here.
# Columns and labels:
# Plasmodium falciparum [1] = assay: Antimalarial activity against Plasmodium falciparum NF54 after 48 hrs incubation by [3H]hypoxanthin incorporation assay
# [2] = Cytotoxicity against human THP1 cells after 4 days by XTT assay; type: cell-based; settings: THP-1 cells
# [3] = Cytotoxicity against human HepG2 cells after 4 days by XTT assay; type: cell-based
# hERG (KCNH2) [4] = target: T1, hERG (KCNH2) (Homo sapiens, UniProt Q12809); assay: Inhibition of human ERG at 30 uM
# hERG (KCNH2) [5] = target: T1, hERG (KCNH2); assay: Inhibition of human ERG at 30 uM by patch clamp method
# Adenosine receptor A3 = Adenosine receptor A3 (Homo sapiens, UniProt P0DMS8); assay: Binding affinity to human recombinant adenosine 3 receptor
# [6] = target: Beta-2 adrenergic receptor (Homo sapiens, UniProt P07550); assay: Binding affinity to human recombinant adrenergic beta2 receptor
# [7] = target: Beta-3 adrenergic receptor (Homo sapiens, UniProt P13945); assay: Binding affinity to human recombinant adrenergic beta3 receptor
# [8] = target: Alpha-2A adrenergic receptor (Homo sapiens, UniProt P08913); assay: Binding affinity to human recombinant alpha-2a receptor
# [9] = target: Alpha-2B adrenergic receptor (Homo sapiens, UniProt P18089); assay: Binding affinity to human recombinant alpha2b receptor
# [10] = target: Type-1 angiotensin II receptor (Homo sapiens, UniProt P30556); assay: Binding affinity to human recombinant angiotensin2 AT1 receptor
# [11] = Binding affinity to rat N-type calcium channel
# Cannabinoid receptor 1 = Cannabinoid receptor 1 (Homo sapiens, UniProt P21554); assay: Binding affinity to human recombinant cannabinoid 1 receptor
# [12] = target: Cholecystokinin receptor type A (Homo sapiens, UniProt P32238); assay: Binding affinity to human recombinant cholecystokinin A receptor
# [13] = target: Corticotropin-releasing factor receptor 1 (Homo sapiens, UniProt P34998); assay: Binding affinity to human recombinant CRF1 receptor
# D(1A) dopamine receptor = D(1A) dopamine receptor (Homo sapiens, UniProt P21728); assay: Binding affinity to human recombinant dopamine D1 receptor
# [14] = target: Endothelin receptor type B (Homo sapiens, UniProt P24530); assay: Binding affinity to human recombinant endothelin B receptor
# [15] = target: GABA-A receptor; agonist GABA site; assay: Binding affinity to human recombinant GABAA receptor; type: protein-complex assay
# [16] = target: Gastric inhibitory polypeptide receptor (Rattus norvegicus, UniProt P43219); assay: Binding affinity to rat Gip receptor
# Glucagon receptor = Glucagon receptor (Homo sapiens, UniProt P47871); assay: Binding affinity to human recombinant glucagon receptor
# Histamine H3 receptor = Histamine H3 receptor (Homo sapiens, UniProt Q9Y5N1); assay: Binding affinity to human recombinant histamine H3 receptor
# Melanocortin receptor 3 = Melanocortin receptor 3 (Homo sapiens, UniProt P41968); assay: Binding affinity to human recombinant melanocortin MC3 receptor
# Melanocortin receptor 4 = Melanocortin receptor 4 (Homo sapiens, UniProt P32245); assay: Binding affinity to human recombinant melanocortin MC4 receptor
# [17] = target: Glutamate [NMDA] receptor; assay: Binding affinity to human recombinant NMDA receptor
# [18] = target: Delta-type opioid receptor (Homo sapiens, UniProt P41143); assay: Binding affinity to human recombinant opiate delta receptor
# [19] = target: Kappa-type opioid receptor (Homo sapiens, UniProt P41145); assay: Binding affinity to human recombinant opiate kappa receptor
# Mu-type opioid receptor = Mu-type opioid receptor (Homo sapiens, UniProt P35372); assay: Binding affinity to human recombinant opiate mu receptor
# [20] = target: Sodium-dependent serotonin transporter (Homo sapiens, UniProt P31645); assay: Binding affinity to human recombinant serotonin transporter
# [21] = Volume of distribution at steady state in CD1 mouse at 5.4 mg/kg, iv; type: ADME, organism-based; design: dose 5.4 mg/kg, route intravenous; settings: in vivo, read-out: Vdss
# [22] = Oral bioavailability in Wistar rat at 23.7 mg/kg; type: ADME, organism-based; settings: in vivo
# [23] = Intrinsic clearance in dog liver microsome; type: ADME, Canis lupus familiaris; settings: liver microsomes
# Plasmodium berghei [24] = assay: Antimalarial activity against Plasmodium berghei GFP ANKA infected in NMRI mice (Mus musculus) assessed as reduction in parasitaemia at 10 mg/kg, perorally administered through 0.5% MCM/0.1%solutol HS15 formulation 24 hrs post infection for 3 days measured 96 hrs post infection; type: functional; design: scale not given: the % may be the effect or the level left; settings: route oral
# Plasmodium berghei [25] = assay: Antimalarial activity against Plasmodium berghei GFP ANKA infected in NMRI mice (Mus musculus) assessed as survival at 30 mg/kg, perorally administered through 0.5% MCM/0.1%solutol HS15 formulation 24 hrs post infection for 3 days measured 96 hrs post infection; type: functional; settings: route oral
# Plasmodium berghei [26] = assay: Antimalarial activity against Plasmodium berghei GFP ANKA infected in NMRI mice (Mus musculus) assessed as cure rate at 10 mg/kg, perorally administered through 0.5% MCM/0.1%solutol HS15 formulation 24 hrs post infection for 3 days measured on day 30 post infection; type: functional; settings: route oral
# Plasmodium berghei [27] = assay: Antimalarial activity against Plasmodium berghei GFP ANKA infected in NMRI mice (Mus musculus) assessed as cure rate at 30 mg/kg, perorally administered through 0.5% MCM/0.1%solutol HS15 formulation 24 hrs post infection for 3 days measured on day 30 post infection; type: functional; settings: route oral
# Plasmodium falciparum [28] = assay: Antimalarial activity against NITD609-resistant Plasmodium falciparum Dd2 Clone1 bearing P-type ATPase4 I398F and P990R mutations after 72 hrs by SYBR green based fluorescence assay; type: functional, organism-based; settings: Dd2, 72 h
# Plasmodium falciparum [29] = assay: Antimalarial activity against NITD609-resistant Plasmodium falciparum Dd2 Clone2 bearing P-type ATPase4 T418N and P990R mutations after 72 hrs by SYBR green based fluorescence assay; type: functional, organism-based; settings: Dd2, 72 h
# Plasmodium falciparum [30] = type: functional, organism-based; settings: Dd2, 72 h, read-out: IC50
# Plasmodium falciparum [31] = assay: Antimalarial activity against Plasmodium falciparum assessed as […] by SYBR green based fluorescence assay; type: functional, organism-based; settings: Plasmodium falciparum
# Plasmodium falciparum [32] = assay: Antimalarial activity against Plasmodium falciparum isolates after 42 hrs; type: functional, organism-based
# Plasmodium falciparum [33] = assay: Inhibition of protein synthesis in NITD609-resistant Plasmodium falciparum Dd2 Clone1 within 1 hrs by [35S]Met/Cys incorporation assay; type: functional
# in vivo [34] = settings: CD1, mouse, po, 24.6 mg/kg
# in vivo [35] = settings: Wistar, rat, iv, 5 mg/kg
# in vivo [36] = settings: Wistar, rat, po, 23.7 mg/kg
# Plasmodium falciparum [37] = assay: microbe, parasite or virus in culture; settings: TM90C2A
# Plasmodium falciparum [38] = assay: microbe, parasite or virus in culture; settings: Dd2, 72 h
# Plasmodium falciparum [39] = assay: microbe, parasite or virus in culture; settings: Dd2, 72 h; remark: listed apart in the source
# Plasmodium falciparum [40] = assay: microbe, parasite or virus in culture; settings: Dd2, 72 h; remark: listed apart in the source
# Plasmodium falciparum [41] = assay: microbe, parasite or virus in culture; settings: Dd2, 72 h; remark: listed apart in the source
# Plasmodium falciparum [42] = assay: microbe, parasite or virus in culture; settings: Dd2, 72 h; remark: listed apart in the source
# T1 sequence (Q12809 whole entry): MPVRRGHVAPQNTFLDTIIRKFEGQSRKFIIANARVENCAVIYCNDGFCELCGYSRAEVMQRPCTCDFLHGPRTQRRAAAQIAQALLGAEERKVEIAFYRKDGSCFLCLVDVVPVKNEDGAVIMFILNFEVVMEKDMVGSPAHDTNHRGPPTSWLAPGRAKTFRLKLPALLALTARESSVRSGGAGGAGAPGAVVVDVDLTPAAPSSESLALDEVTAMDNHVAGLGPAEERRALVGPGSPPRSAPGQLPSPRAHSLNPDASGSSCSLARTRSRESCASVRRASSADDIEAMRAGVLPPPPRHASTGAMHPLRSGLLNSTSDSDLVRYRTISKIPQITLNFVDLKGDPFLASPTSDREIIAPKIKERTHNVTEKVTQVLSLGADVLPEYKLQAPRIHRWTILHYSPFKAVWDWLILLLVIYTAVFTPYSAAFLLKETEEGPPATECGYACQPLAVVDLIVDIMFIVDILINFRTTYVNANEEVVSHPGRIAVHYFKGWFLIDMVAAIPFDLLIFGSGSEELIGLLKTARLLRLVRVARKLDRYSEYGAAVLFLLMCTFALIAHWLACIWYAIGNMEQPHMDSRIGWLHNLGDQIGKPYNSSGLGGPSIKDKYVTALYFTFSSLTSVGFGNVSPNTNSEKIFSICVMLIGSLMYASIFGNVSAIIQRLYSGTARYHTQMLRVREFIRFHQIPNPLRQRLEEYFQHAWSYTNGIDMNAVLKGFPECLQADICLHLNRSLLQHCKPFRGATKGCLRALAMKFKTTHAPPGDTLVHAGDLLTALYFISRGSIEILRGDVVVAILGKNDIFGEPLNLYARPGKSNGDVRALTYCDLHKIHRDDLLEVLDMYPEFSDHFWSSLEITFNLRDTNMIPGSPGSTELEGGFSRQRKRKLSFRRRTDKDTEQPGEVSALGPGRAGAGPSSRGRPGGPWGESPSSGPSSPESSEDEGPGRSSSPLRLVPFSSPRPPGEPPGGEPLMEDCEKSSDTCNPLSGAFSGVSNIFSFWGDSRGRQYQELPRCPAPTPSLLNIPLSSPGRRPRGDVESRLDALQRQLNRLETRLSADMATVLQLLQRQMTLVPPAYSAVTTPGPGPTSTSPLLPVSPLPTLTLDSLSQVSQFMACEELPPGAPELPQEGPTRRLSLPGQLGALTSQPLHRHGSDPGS
# Chain of Mu-type opioid receptor (P35372 whole entry): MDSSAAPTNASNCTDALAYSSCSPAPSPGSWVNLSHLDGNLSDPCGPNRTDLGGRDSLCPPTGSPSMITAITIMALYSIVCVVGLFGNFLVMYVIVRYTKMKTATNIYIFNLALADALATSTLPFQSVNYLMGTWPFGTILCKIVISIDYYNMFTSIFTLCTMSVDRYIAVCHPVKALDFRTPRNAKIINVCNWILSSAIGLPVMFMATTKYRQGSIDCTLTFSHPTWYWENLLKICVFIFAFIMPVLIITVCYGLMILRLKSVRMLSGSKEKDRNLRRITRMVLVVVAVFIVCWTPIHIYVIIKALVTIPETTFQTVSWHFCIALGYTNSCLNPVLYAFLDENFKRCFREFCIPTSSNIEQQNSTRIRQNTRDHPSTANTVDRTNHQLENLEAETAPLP
# Chain of D(1A) dopamine receptor (P21728 whole entry): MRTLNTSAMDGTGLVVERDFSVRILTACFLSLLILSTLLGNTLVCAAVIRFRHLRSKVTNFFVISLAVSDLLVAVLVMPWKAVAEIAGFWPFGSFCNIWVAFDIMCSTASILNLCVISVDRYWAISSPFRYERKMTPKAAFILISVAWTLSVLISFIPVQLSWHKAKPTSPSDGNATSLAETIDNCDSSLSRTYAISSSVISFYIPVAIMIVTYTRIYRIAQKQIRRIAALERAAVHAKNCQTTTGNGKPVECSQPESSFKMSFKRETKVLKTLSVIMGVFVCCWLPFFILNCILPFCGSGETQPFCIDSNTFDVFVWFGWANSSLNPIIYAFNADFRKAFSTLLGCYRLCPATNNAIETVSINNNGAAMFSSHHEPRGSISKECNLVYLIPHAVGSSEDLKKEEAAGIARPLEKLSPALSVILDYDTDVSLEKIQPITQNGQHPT
# Chain of Delta-type opioid receptor (P41143 whole entry): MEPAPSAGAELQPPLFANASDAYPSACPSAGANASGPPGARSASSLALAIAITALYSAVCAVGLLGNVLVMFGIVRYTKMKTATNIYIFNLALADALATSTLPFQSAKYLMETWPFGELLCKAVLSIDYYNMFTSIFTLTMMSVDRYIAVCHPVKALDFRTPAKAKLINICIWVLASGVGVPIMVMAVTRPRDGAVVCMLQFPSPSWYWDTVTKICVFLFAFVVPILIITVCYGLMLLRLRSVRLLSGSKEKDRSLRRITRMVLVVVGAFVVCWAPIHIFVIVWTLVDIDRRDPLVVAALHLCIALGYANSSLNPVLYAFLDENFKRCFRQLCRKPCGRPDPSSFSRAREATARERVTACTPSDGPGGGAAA
# Chain of Alpha-2B adrenergic receptor (P18089 whole entry): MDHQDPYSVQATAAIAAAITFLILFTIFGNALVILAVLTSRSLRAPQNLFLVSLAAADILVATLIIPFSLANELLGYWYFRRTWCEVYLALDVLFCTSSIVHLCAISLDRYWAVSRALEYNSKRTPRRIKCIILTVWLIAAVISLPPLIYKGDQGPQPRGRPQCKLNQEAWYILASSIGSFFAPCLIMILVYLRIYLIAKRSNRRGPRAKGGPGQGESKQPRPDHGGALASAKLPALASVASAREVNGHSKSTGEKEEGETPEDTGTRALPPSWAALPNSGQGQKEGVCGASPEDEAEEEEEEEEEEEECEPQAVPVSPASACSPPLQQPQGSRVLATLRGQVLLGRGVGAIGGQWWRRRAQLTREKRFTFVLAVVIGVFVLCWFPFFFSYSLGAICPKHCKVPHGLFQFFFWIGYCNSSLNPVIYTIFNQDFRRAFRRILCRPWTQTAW
# Chain of Sodium-dependent serotonin transporter (P31645 whole entry): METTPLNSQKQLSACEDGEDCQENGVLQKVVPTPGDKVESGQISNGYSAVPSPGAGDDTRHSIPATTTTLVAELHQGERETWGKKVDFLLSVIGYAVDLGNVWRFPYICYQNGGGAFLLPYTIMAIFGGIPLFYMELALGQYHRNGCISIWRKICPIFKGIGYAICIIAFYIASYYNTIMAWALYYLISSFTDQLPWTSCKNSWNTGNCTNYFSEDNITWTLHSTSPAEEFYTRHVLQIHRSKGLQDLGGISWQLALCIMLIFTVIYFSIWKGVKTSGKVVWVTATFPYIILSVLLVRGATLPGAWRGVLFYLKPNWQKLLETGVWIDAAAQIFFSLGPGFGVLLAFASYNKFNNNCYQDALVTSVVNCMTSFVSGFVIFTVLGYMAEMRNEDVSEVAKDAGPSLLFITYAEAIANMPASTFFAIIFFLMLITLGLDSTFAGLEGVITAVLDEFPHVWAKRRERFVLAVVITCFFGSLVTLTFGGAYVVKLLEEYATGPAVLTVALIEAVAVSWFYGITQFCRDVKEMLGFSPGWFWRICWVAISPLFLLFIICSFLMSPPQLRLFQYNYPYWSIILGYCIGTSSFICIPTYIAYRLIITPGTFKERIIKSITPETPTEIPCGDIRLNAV
# Chain of Melanocortin receptor 4 (P32245 whole entry): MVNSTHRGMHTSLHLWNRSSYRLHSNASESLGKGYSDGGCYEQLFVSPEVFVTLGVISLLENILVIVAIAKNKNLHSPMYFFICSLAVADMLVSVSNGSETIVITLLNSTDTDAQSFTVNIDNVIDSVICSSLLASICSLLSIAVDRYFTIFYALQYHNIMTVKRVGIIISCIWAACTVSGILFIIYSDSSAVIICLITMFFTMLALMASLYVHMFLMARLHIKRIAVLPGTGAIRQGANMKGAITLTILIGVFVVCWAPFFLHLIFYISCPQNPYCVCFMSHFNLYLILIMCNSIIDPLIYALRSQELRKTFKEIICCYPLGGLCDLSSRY
# Chain of Cannabinoid receptor 1 (P21554 whole entry): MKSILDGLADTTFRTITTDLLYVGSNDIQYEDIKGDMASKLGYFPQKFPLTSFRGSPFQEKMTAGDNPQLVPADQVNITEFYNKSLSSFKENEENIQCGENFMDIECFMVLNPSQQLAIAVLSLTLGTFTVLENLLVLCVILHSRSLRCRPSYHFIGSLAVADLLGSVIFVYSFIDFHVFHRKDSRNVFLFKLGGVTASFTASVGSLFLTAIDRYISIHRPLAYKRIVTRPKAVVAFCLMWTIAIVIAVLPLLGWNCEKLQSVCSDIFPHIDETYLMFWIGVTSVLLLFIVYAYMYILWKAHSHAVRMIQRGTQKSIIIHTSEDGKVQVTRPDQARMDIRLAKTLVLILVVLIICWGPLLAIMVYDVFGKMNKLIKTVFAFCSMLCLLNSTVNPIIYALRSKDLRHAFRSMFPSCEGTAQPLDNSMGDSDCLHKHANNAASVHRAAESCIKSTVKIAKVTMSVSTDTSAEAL
# Chain of Corticotropin-releasing factor receptor 1 (P34998 whole entry): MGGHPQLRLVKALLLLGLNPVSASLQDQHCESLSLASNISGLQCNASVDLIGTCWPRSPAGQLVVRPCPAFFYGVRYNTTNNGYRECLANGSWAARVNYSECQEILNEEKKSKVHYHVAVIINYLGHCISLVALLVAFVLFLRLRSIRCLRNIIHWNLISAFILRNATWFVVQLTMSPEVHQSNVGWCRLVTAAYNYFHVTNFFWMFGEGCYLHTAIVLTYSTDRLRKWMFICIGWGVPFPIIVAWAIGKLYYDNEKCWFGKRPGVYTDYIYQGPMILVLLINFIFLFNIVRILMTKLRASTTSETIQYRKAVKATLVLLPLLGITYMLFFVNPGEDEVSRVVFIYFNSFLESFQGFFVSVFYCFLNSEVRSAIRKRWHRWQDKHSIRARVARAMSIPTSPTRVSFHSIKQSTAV
# Chain of Melanocortin receptor 3 (P41968 whole entry): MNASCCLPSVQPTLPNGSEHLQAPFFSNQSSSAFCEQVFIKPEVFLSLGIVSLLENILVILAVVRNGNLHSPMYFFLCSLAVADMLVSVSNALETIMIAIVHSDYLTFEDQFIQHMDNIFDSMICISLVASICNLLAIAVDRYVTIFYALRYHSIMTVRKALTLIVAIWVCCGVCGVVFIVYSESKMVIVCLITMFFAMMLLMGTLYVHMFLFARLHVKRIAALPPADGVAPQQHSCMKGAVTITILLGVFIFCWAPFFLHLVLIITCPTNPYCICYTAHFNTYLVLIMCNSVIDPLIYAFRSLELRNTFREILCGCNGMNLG
smiles,measurement,setting,value
C[C@H]1Cc2c([nH]c3cc(Cl)c(F)cc23)[C@@]2(N1)C(=O)Nc1ccc(Cl)cc12 [CIPARGAMIN],IC50,Plasmodium falciparum [1],0.0005 µM
same,CC50 at 96 h,[2],14 µM
same,CC50 at 96 h,[3],> 25 µM
same,inhibition at 30 µM,hERG (KCNH2) [4],52%
same,inhibition at 30 µM,hERG (KCNH2) [5],44.9%
same,IC50,Adenosine receptor A3,8.3 µM
same,IC50,[6],> 10 µM
same,IC50,[7],> 30 µM
same,IC50,[8],> 10 µM
same,IC50,[9],> 10 µM
same,IC50,[10],> 30 µM
same,IC50,[11],> 10 µM
same,IC50,Cannabinoid receptor 1,> 10 µM
same,IC50,[12],> 30 µM
same,IC50,[13],> 30 µM
same,IC50,D(1A) dopamine receptor,> 10 µM
same,IC50,[14],> 30 µM
same,IC50,[15],> 10 µM
same,IC50,[16],> 30 µM
same,IC50,Glucagon receptor,> 30 µM
same,IC50,Histamine H3 receptor,> 10 µM
same,IC50,Melanocortin receptor 3,> 30 µM
same,IC50,Melanocortin receptor 4,> 30 µM
same,IC50,[17],> 10 µM
same,IC50,[18],> 10 µM
same,IC50,[19],> 10 µM
same,IC50,Mu-type opioid receptor,> 10 µM
same,IC50,[20],> 10 µM
same,Vd,[21],2.11 L/kg
same,bioavailability,[22],100%
same,CLint scaled,[23],22.1 mL/min/kg
same,Survival,Plasmodium berghei [25],29.1 days
same,Activity,Plasmodium berghei [26],50%
same,Activity,Plasmodium berghei [27],90%
same,IC50,Plasmodium falciparum [28],0.0109 µM
same,IC50,Plasmodium falciparum [29],0.0037 µM
same,IC50,Plasmodium falciparum [30],0.0032 µM
same,IC50,Plasmodium falciparum [31],0.0005 µM
same,inhibition,Plasmodium falciparum [32],Active
same,inhibition (INH),Plasmodium falciparum [33],50%
same,half-life,in vivo [34],10 h
same,half-life,in vivo [35],10.7 h
same,half-life,in vivo [36],27.7 h
same,IC50,Plasmodium falciparum [37],0.0005 µM
same,IC50,Plasmodium falciparum [38],0.0041 µM
same,IC50,Plasmodium falciparum [39],0.00157 µM
same,IC50,Plasmodium falciparum [40],0.00189 µM
same,IC50,Plasmodium falciparum [41],0.0039 µM
same,IC50,Plasmodium falciparum [42],0.00425 µM
